SMILES strings stand for the structures. In brackets after ≈: the same amount, converted by molar mass.

Experiment [1] is described as follows: Inhibition of oxygen evolution rate in spinach chloroplasts. Type of experiment: functional, Spinacia oleracea.
For experiment [2], the system named is Mycobacterium tuberculosis. Briefly: Antimycobacterial activity against Mycobacterium tuberculosis H37Rv. Type of experiment: functional.
Experiment [3] concerns Mycobacterium tuberculosis. Put plainly: Antimycobacterial activity against Mycobacterium tuberculosis H37Rv relative to control. Type of experiment: functional. Also noted: concentration or dose not given beside the values.
The test system of experiment [4] is HL-60. Put plainly: Photocytotoxicity against human HL60 cells irradiated with 1.25 J cm^-2 UVA dose after 72 hrs by MTT assay. Type of experiment: functional. To be noted: HL-60, light or radiation study. A general note: Formazan colour is commonly taken as a measure of viable cells.
In experiment [5] the test system is HL-60. Put plainly: Cell cycle arrest in human HL60 cells irradiated with 2.5 J cm^-2 CUVA assessed as accumulation at G2 phase at 2.5 mM after 48 hrs. Type of experiment: functional.
In experiment [6] the test system is HL-60. Briefly: Cell cycle arrest in human HL60 cells irradiated with 2.5 J cm^-2 CUVA assessed as accumulation at G2 phase at 5 mM after 72 hrs. Type of experiment: functional.
Experiment [7] deals with HL-60. Put plainly: Cell cycle arrest in human HL60 cells irradiated with 2.5 J cm^-2 CUVA assessed as accumulation at G1 phase at 2.5 mM after 48 hrs. Type of experiment: functional.
Experiment [8] relates to HL-60. Put plainly: Induction of apoptosis in human HL60 cells irradiated with 2.5 J cm^-2 CUVA assessed as appearance of sub G1 peak at 5 mM after 48 hrs. Type of experiment: functional.
For a further experiment, the system named is Chlorella vulgaris. Put plainly: Antialgal activity against Chlorella vulgaris assessed as inhibition of chlorophyll production. Type of experiment: functional, organism-based.
Experiment [9] has as its system HL-60. Briefly: Cell cycle arrest in human HL60 cells irradiated with 2.5 J cm^-2 CUVA assessed as accumulation at G2 phase at 2.5 mM after 72 hrs. Type of experiment: functional.
The test system of experiment [10] is HL-60. Put plainly: Cell cycle arrest in human HL60 cells irradiated with 2.5 J cm^-2 CUVA assessed as accumulation at S phase at 2.5 mM after 24 hrs. Type of experiment: functional.
Experiment [11] deals with HL-60. Put plainly: Induction of apoptosis in human HL60 cells irradiated with 2.5 J cm^-2 CUVA assessed as appearance of sub G1 peak at 5 mM after 72 hrs. Type of experiment: functional.
Experiment [12] deals with LoVo. Briefly: Photocytotoxicity against human LoVo cells irradiated with 2.5 J cm^-2 UVA dose after 72 hrs by MTT assay. Type of experiment: functional. As to conditions: light or radiation study.
Experiment [13] concerns HL-60. Briefly: Cell cycle arrest in human HL60 cells irradiated with 2.5 J cm^-2 CUVA assessed as accumulation at G2 phase at 2.5 mM after 24 hrs. Type of experiment: functional.
The subject of experiment [14] is HL-60. Briefly: Induction of apoptosis in human HL60 cells irradiated with 2.5 J cm^-2 CUVA assessed as appearance of sub G1 peak at 2.5 mM after 24 hrs. Type of experiment: functional.
Experiment [15] concerns HL-60. Briefly: Induction of apoptosis in human HL60 cells irradiated with 2.5 J cm^-2 CUVA assessed as appearance of sub G1 peak at 2.5 mM after 72 hrs. Type of experiment: functional.
The subject of experiment [16] is HL-60. Put plainly: Cell cycle arrest in human HL60 cells irradiated with 2.5 J cm^-2 CUVA assessed as accumulation at G1 phase at 5 mM after 72 hrs. Type of experiment: functional.
Experiment [17] relates to HL-60. Briefly: Induction of apoptosis in human HL60 cells irradiated with 2.5 J cm^-2 CUVA assessed as appearance of sub G1 peak at 5 mM after 24 hrs. Type of experiment: functional.
Experiment [18] relates to HL-60. Briefly: Cell cycle arrest in human HL60 cells irradiated with 2.5 J cm^-2 CUVA assessed as accumulation at S phase at 5 mM after 48 hrs. Type of experiment: functional.
Experiment [19] has as its system HL-60. Put plainly: Cell cycle arrest in human HL60 cells irradiated with 2.5 J cm^-2 CUVA assessed as accumulation at S phase at 2.5 mM after 72 hrs. Type of experiment: functional.
Experiment [20] concerns HL-60. Put plainly: Cell cycle arrest in human HL60 cells irradiated with 2.5 J cm^-2 CUVA assessed as accumulation at S phase at 2.5 mM after 48 hrs. Type of experiment: functional.
Experiment [21] has as its system HL-60. Briefly: Cell cycle arrest in human HL60 cells irradiated with 2.5 J cm^-2 CUVA assessed as accumulation at S phase at 5 mM after 24 hrs. Type of experiment: functional.
Experiment [22] has as its system HL-60. Put plainly: Cell cycle arrest in human HL60 cells irradiated with 2.5 J cm^-2 CUVA assessed as accumulation at S phase at 5 mM after 72 hrs. Type of experiment: functional.
In experiment [23] the test system is HL-60. Briefly: Induction of apoptosis in human HL60 cells irradiated with 2.5 J cm^-2 CUVA assessed as appearance of sub G1 peak at 2.5 mM after 48 hrs. Type of experiment: functional.
Experiment [24] concerns HL-60. Briefly: Cell cycle arrest in human HL60 cells irradiated with 2.5 J cm^-2 CUVA assessed as accumulation at G1 phase at 5 mM after 24 hrs. Type of experiment: functional.
Experiment [25] has as its system HL-60. Briefly: Cell cycle arrest in human HL60 cells irradiated with 2.5 J cm^-2 CUVA assessed as accumulation at G2 phase at 5 mM after 48 hrs. Type of experiment: functional.
Experiment [26] relates to HL-60. Put plainly: Cell cycle arrest in human HL60 cells irradiated with 2.5 J cm^-2 CUVA assessed as accumulation at G2 phase at 5 mM after 24 hrs. Type of experiment: functional.
For experiment [27], the system named is HL-60. Put plainly: Cell cycle arrest in human HL60 cells irradiated with 2.5 J cm^-2 CUVA assessed as accumulation at G1 phase at 5 mM after 48 hrs. Type of experiment: functional.
Experiment [28] relates to HL-60. Put plainly: Cell cycle arrest in human HL60 cells irradiated with 2.5 J cm^-2 CUVA assessed as accumulation at G1 phase at 2.5 mM after 72 hrs. Type of experiment: functional.
The test system of experiment [29] is HL-60. Briefly: Cell cycle arrest in human HL60 cells irradiated with 2.5 J cm^-2 CUVA assessed as accumulation at G1 phase at 2.5 mM after 24 hrs. Type of experiment: functional.
Experiment [30] relates to LoVo. Put plainly: Photocytotoxicity against human LoVo cells irradiated with 1.25 J cm^-2 UVA dose after 72 hrs by MTT assay. As to conditions: light or radiation study. Type of experiment: functional.

What is called MIC is the smallest concentration in the dilution series that meets the test's criterion for growth inhibition. As a reminder, the Inhibition is the percentage by which the read-out fell short of the control. For orientation: GI50 means the concentration giving 50% growth inhibition. `c1ccc(Nc2nc(Nc3ccccc3)nc(Nc3ccccc3)n2)cc1`: the IC50 in experiment [1] is 1.072 mmol/dm3. Further, in experiment [2], the MIC is above 6.25 µg/mL. The compound also showed an Inhibition in experiment [3] of 0%. Moreover, the GI50 with HL-60 [4] is above 10 mM.
In [1], `Oc1nc(O)nc(O)n1` returned an IC50 of 0.081 mmol/dm3. Further, in experiment [2], the MIC was above 6.25 µg/mL. Moreover, the Inhibition in [3] was found to be 39%. In the experiment with HL-60 [4], this compound came in with a GI50 of 4.3 mM.
Consider `CC(=O)Nc1nc(NC(C)=O)nc(NC(C)=O)n1`, for which the Activity in the experiment with HL-60 [5] is reported as 10.3%; with HL-60 [6], 6.9%; in the experiment on HL-60 [7], 44.5%; with HL-60 [8], 26%; in the experiment with HL-60 [9] it was 12%; in the experiment on HL-60 [10], 58.4%. Moreover, the Activity with HL-60 [11] stood at 46%; with HL-60 [13], 10.8%; with HL-60 [14], 13.2%; with HL-60 [15], 40.5%; in the experiment on HL-60 [16], 57.3%; in the experiment on HL-60 [17], 21%. The Activity came out at 38.6% in the experiment on HL-60 [18]; 43.8% with HL-60 [19]; 45% in the experiment on HL-60 [20]; 54.3% with HL-60 [21]; 37.1% in the experiment on HL-60 [22]; 27% with HL-60 [23]. Besides, the Activity turned out to be 34.2% in the experiment on HL-60 [24]; 11.7% with HL-60 [25]; 11.1% with HL-60 [26]; 50.3% in the experiment on HL-60 [27]; 45.2% in the experiment with HL-60 [28]; 29.3% in the experiment on HL-60 [29]. The values for the IC50 (in experiment [1]; with Chlorella vulgaris) were 0.148 mmol/dm3 and 0.208 mmol/dm3, respectively. Also, in [2], the minimal inhibitory concentration (MIC) was above 6.25 µg/mL. Further, the GI50 with LoVo [12] amounted to 1.89 mM; in the experiment on HL-60 [4], 6.8 mM; with LoVo [30], 3.5 mM. The compound further registered an Inhibition in experiment [3] of 11%.
Consider `CNc1nc(NC)nc(NC)n1`, for which the results for the IC50 (in experiment [1]; in the experiment with Chlorella vulgaris) were 0.118 mmol/dm3 and 0.356 mmol/dm3, respectively. This compound displayed an MIC in [2] above 6.25 µg/mL. This compound returned an Inhibition in experiment [3] of 24%. In the experiment on HL-60 [4], this compound showed a concentration for 50% growth inhibition (GI50) above 10 mM.
As to `COc1ccc(Nc2nc(Nc3ccc(OC)cc3)nc(Nc3ccc(OC)cc3)n2)cc1`, the IC50 in experiment [1] is 0.241 mmol/dm3; in the experiment on Chlorella vulgaris, 0.079 mmol/dm3. In addition, in experiment [2], the MIC was above 6.25 µg/mL. Besides, in experiment [3], the Inhibition turned out to be 72%. The GI50 in the experiment with HL-60 [4] worked out at 3.4 mM.
For `CCN(CC)c1nc(N(CC)CC)nc(N(CC)CC)n1`, the IC50 in experiment [1] is given as 0.244 mmol/dm3; in the experiment on Chlorella vulgaris it was 0.067 mmol/dm3. For the same compound, the MIC in [2] was above 6.25 µg/mL. Moreover, the GI50 in the experiment with LoVo [12] was 12.5 mM; with HL-60 [4], above 10 mM; with LoVo [30] it was above 20 mM. The compound further returned an Inhibition in experiment [3] of 0%.
Turning to `CN(C)c1nc(N(C)C)nc(N(C)C)n1` [ALTRETAMINE], the values for the IC50 (in [1]; with Chlorella vulgaris) were 0.486 mmol/dm3 and 0.125 mmol/dm3, respectively. Also, the MIC in experiment [2] is above 6.25 µg/mL. The results for the concentration for 50% growth inhibition (GI50) in the experiment on LoVo [12], with HL-60 [4] and with LoVo [30] were 10.3 mM, above 10 mM and 17.2 mM, respectively. Further, in experiment [3], the Inhibition was found to be 28%.
In the case of `CN(C)C(=O)Nc1ccc(Cl)c(Cl)c1` [DCMU], the IC50 came out at 0.0019 mmol/dm3 in experiment [1] and 0.0073 mmol/dm3 with Chlorella vulgaris.
In turn, `CO[C@H]1/C=C/O[C@@]2(C)Oc3c(C)c(O)c4c(O)c(c(/C=N/N5CCN(C)CC5)c(O)c4c3C2=O)NC(=O)/C(C)=C\C=C\[C@H](C)[C@H](O)[C@@H](C)[C@@H](O)[C@@H](C)[C@H](OC(C)=O)[C@@H]1C` [RIFAMPIN] returned an MIC in experiment [2] of 0.125 µg/mL (≈ 0.152 µM). This compound yielded an Inhibition in experiment [3] of 100%.

For the origin of these results see ChEMBL document CHEMBL1145352, “Synthesis and cytotoxic activity of trisubstituted-1,3,5-triazines” (Bioorg Med Chem Lett, 2007).
